Literature values as cited in patent publication US10758506B2, “Amino acid compositions for the treatment of porcine epidemic diarrhea” (priority 2014, dated 2020).

Details: Health Phys., 106(6):734-44, 2014
For N=C(N)NCCC[C@H](N)C(=O)O [Arginine], the “active anion secretion and/or paracellular permeability” value is given as “activate active anion secretion and/or increase paracellular permeability”.
For C[C@H](N)C(=O)O [alanine], the “active anion secretion and/or paracellular permeability” value is given as “activate active anion secretion and/or increase paracellular permeability”.
For NC(=O)C[C@H](N)C(=O)O [asparagine], the “active anion secretion and/or paracellular permeability” value is given as “activate active anion secretion and/or increase paracellular permeability”.
In the case of N[C@@H](CS)C(=O)O [cysteine], the “active anion secretion and/or paracellular permeability” value is listed as “activate active anion secretion and/or increase paracellular permeability”.
For N[C@@H](CCC(=O)O)C(=O)O [glutamic acid], the “active anion secretion and/or paracellular permeability” value is listed as “activate active anion secretion and/or increase paracellular permeability”.
In the case of NC(=O)CC[C@H](N)C(=O)O [glutamine], the “active anion secretion and/or paracellular permeability” value is listed as “activate active anion secretion and/or increase paracellular permeability”.
For N[C@@H](Cc1c[nH]cn1)C(=O)O [histidine], the “active anion secretion and/or paracellular permeability” value is given as “activate active anion secretion and/or increase paracellular permeability”.
For CC(C)C[C@H](N)C(=O)O [leucine], the “active anion secretion and/or paracellular permeability” value is given as “activate active anion secretion and/or increase paracellular permeability”.
For CSCC[C@H](N)C(=O)O [methionine], the “active anion secretion and/or paracellular permeability” value is given as “activate active anion secretion and/or increase paracellular permeability”.
For N[C@@H](Cc1ccccc1)C(=O)O [phenylalanine], the “active anion secretion and/or paracellular permeability” value is listed as “activate active anion secretion and/or increase paracellular permeability”.
